Patent US20240166652A1, “MODULATORS OF THE INTEGRATED STRESS PATHWAY” (Calico Life Sciences LLC, priority 2017, published 2024)

Test system: ATF4 luciferase reporter in HEK293T cells
Assay: ATF4-Luc assay (ATF4 luciferase reporter, tunicamycin-treated HEK293T cells)
Type: cell-based, human
Conditions: Homo sapiens, HEK-293T; HEK293T cells carrying the ATF4 luciferase reporter, 1 μg/mL tunicamycin, 7 hours

Row | Structure (SMILES) | EC50 [nM]
1 | CO[C@H]1C[C@]2(NC(=O)COc3ccc(Cl)c(F)c3)CC[C@@]1(NC(=O)COc1ccc(Cl)c(F)c1)CC2=O (racemic) [Compound 555, rac-N,N′-[(1R,2S,4R)-2-methoxy-5-oxobicyclo[2.2.2]octane-1,4-diyl]bis[2-(4-chloro-3-fluorophenoxy)acetamide]] | 10 to 50
2 | CS(=O)(=O)c1ccc(OCC(=O)NC23CCC(NC(=O)COc4ccc(Cl)c(F)c4)(CC2)[C@@H](O)C3)cc1 [Compound 476, 2-(4-chloro-3-fluorophenoxy)-N-[(2S)-2-hydroxy-4-{2-[4-(methanesulfonyl)phenoxy]acetamido}bicyclo[2.2.2]octan-1-yl] acetamide] | 50 to 250
3 | O=C(COc1ccc(Cl)c(F)c1)NC12CCC(NC(=O)COc3ccc(F)c(Cl)c3)(C1)C2 [Compound 535, 2-(3-chloro-4-fluorophenoxy)-N-{4-[2-(4-chloro-3-fluorophenoxy)acetamido]bicyclo[2.1.1]hexan-1-yl}acetamide] | 10 to 50
4 | COc1ccc(OCC(=O)NC23CCC(NC(=O)COc4ccc(Cl)c(F)c4)(CC2)[C@@H](O)C3)nc1 [Compound 667, 2-(4-chloro-3-fluorophenoxy)-N-[(2S)-2-hydroxy-4-{2-[(5-methoxypyridin-2-yl)oxy]acetamido}bicyclo[2.2.2]octan-1-yl]acetamide] | > 2000
5 | COCc1ccccc1OCC(=O)NC12CCC(NC(=O)COc3ccc(Cl)c(F)c3)(CC1)[C@@H](O)C2 [Compound 776, 2-(4-chloro-3-fluorophenoxy)-N-[(2S)-2-hydroxy-4-{2-[2-(methoxymethyl)phenoxy]acetamido}bicyclo[2.2.2]octan-1-yl]acetamide] | > 2000
6 | O=C(COc1ccc(C(F)(F)F)nc1)NC12CCC(NC(=O)COc3ccc(Cl)c(F)c3)(CC1)CC2 [Compound 101, 2-(4-chloro-3-fluorophenoxy)-N-[4-(2-{[6-(trifluoromethyl)pyridin-3-yl]oxy}acetamido)bicyclo[2.2.2]octan-1-yl]acetamide] | 10 to 50
7 | COc1ncc(OCC(=O)NC23CC(NC(=O)COc4ccc(Cl)c(F)c4)(C2)C3)cc1C [Compound 253, 2-(4-chloro-3-fluorophenoxy)-N-(3-{2-[(6-methoxy-5-methylpyridin-3-yl)oxy]acetamido}bicyclo[1.1.1]pentan-1-yl)acetamide] | 10 to 50
8 | CS(=O)(=O)c1ccc(OCC(=O)NC23CCC(NC(=O)COc4ccc(Cl)c(F)c4)(CC2)[C@@H](O)C3)cc1F [Compound 769, 2-(4-chloro-3-fluorophenoxy)-N-[(2S)-4-{2-[3-fluoro-4-(methanesulfonyl)phenoxy]acetamido}-2-hydroxybicyclo[2.2.2]octan-1-yl]acetamide] | 10 to 50
9 | O=C(COc1ccc(Cl)c(F)c1)NC12CCC(NCCOc3ccc(Cl)c(Cl)c3)(CC1)C(O)C2 (stereo not shown) [Compound 335, 2-(4-chloro-3-fluorophenoxy)-N-(4-{[2-(3,4-dichlorophenoxy)ethyl]amino}-3-hydroxybicyclo[2.2.2]octan-1-yl)acetamide] | < 10
10 | O=C(COc1ccc(Cl)c(F)c1)NC12CC(NCC(O)c3ccc(Cl)cc3)(C1)C2 (stereo not shown) [Compound 290, 2-(4-chloro-3-fluorophenoxy)-N-(3-{[2-(4-chlorophenyl)-2-hydroxyethyl]amino}bicyclo[1.1.1]pentan-1-yl)acetamide] | 500 to 2000
11 | O=C(COCc1cccc(Cl)c1)NC12CC(NC(=O)COc3ccc(Cl)c(F)c3)(C1)C2 [Compound 131, 2-(4-chloro-3-fluorophenoxy)-N-(3-{2-[(3-chlorophenyl)methoxy]acetamido}-bicyclo[1.1.1]pentan-1-yl)acetamide] | 10 to 50
12 | O=C(COc1ccc(Cl)cc1)NC12CCC(NC(=O)COc3ccc(Cl)cc3)(CC1)CC2 [Compound 744, N,N′-(bicyclo[2.2.2]octane-1,4-diyl)bis[2-(4-chlorophenoxy)acetamide]] | < 10
13 | Cc1cc(OCC(=O)NC23CC(NC(=O)COc4ccc(Cl)c(F)c4)(C2)C3)cnc1C [Compound 234, 2-(4-chloro-3-fluorophenoxy)-N-(3-{2-[(5,6-dimethylpyridin-3-yl)oxy]acetamido}bicyclo[1.1.1]pentan-1-yl)acetamide] | 50 to 250
14 | COc1cc(OCC(=O)NC23CCC(NC(=O)COc4ccc(Cl)c(F)c4)(CC2)C[C@@H]3O)ccc1F [Compound 771, 2-(4-chloro-3-fluorophenoxy)-N-{(3S)-4-[2-(4-fluoro-3-methoxyphenoxy)acetamido]-3-hydroxybicyclo[2.2.2]octan-1-yl}acetamide] | < 10
15 | CN(C(=O)COc1ccc(Cl)c(Cl)c1)C12CC(NC(=O)COc3ccc(Cl)c(Cl)c3)(C1)C2 [Compound 198, 2-(3,4-dichlorophenoxy)-N-{3-[2-(3,4-dichlorophenoxy)acetamido]-bicyclo[1.1.1]pentan-1-yl}-N-methylacetamide] | 50 to 250
16 | O=C(COc1ccc(F)c(F)c1)NC12CCC(NC(=O)COc3ccc(OC(F)F)c(F)c3)(CC1)[C@@H](O)C2 [Compound 803, 2-[4-(difluoromethoxy)-3-fluorophenoxy]-N-{(2S)-4-[2-(3,4-difluorophenoxy)acetamido]-2-hydroxybicyclo[2.2.2]octan-1-yl}acetamide] | < 10

Row | Structure (SMILES) | EC50 [nM]
17 | O=C(COc1ccc(Cl)c(F)c1)NC12CCC(NCc3nc4cc(F)c(F)cc4[nH]3)(CC1)C[C@@H]2O [Compound 648, 2-(4-chloro-3-fluorophenoxy)-N-[(2S)-4-{[(5,6-difluoro-1H-benzimidazol-2-yl)methyl]amino}-2-hydroxybicyclo[2.2.2]octan-1-yl]acetamide] | 10 to 50
18 | O=C(COc1ccc(Cl)c(F)c1)NC12CCC(OCc3ccc(Cl)cc3)(CC1)CC2=O [Compound 564, 2-(4-chloro-3-fluorophenoxy)-N-{4-[(4-chlorophenyl)methoxy]-2-oxobicyclo[2.2.2]octan-1-yl}acetamide] | > 2000
19 | O=C(/C=C/c1ccc(Cl)cc1)NC12CC(NC(=O)COc3ccc(Cl)c(F)c3)(C1)C2 [Compound 294, (2E)-N-{3-[2-(4-chloro-3-fluorophenoxy)acetamido]bicyclo[1.1.1]pentan-1-yl}-3-(4-chlorophenyl)prop-2-enamide] | 10 to 50
20 | O=C(COc1ccc(Cl)c(F)c1)NC12CCC(NC(=O)Oc3ccc(Cl)cc3)(CC1)C(O)C2 (stereo not shown) [Compound 436, 4-chlorophenyl {4-[2-(4-chloro-3-fluorophenoxy)acetamido]-2-hydroxybicyclo[2.2.2]octan-1-yl}carbamate] | 50 to 250
21 | Cc1ccc(OCC(=O)NC23CCC(NC(=O)COc4ccc(OC(F)(F)F)c(F)c4)(CC2)[C@@H](O)C3)cc1F [Compound 733, 2-(3-fluoro-4-methylphenoxy)-N-[(3S)-4-{2-[3-fluoro-4-(trifluoromethoxy)phenoxy]acetamido}-3-hydroxybicyclo[2.2.2]octan-1-yl]acetamide] | < 10
22 | O=C(COc1ccc(Cl)c(F)c1)NC12CC(NS(=O)(=O)CCOc3ccc(F)cc3)(C1)C2 [Compound 489, 2-(4-chloro-3-fluorophenoxy)-N-(3-{[2-(4-fluorophenoxy)ethanesulfonyl]amino}bicyclo[1.1.1]pentan-1-yl)acetamide] | 500 to 2000
23 | O=C(COc1ccc(F)cc1)NC12CCC(NC(=O)COc3ccc(Cl)c(F)c3)(CC1)[C@@H](O)C2 [Compound 619, 2-(4-chloro-3-fluorophenoxy)-N-{(2S)-4-[2-(4-fluorophenoxy)acetamido]-2-hydroxybicyclo[2.2.2]octan-1-yl}acetamide] | < 10
24 | O=C(COc1ccc(F)c(Cl)c1)NC12CCC(NC(=O)COc3ccc(Cl)c(Cl)c3)(CC1)[C@@H](O)C2 [Compound 544, 2-(3-chloro-4-fluorophenoxy)-N-{(3S)-4-[2-(3,4-dichlorophenoxy)acetamido]-3-hydroxybicyclo[2.2.2]octan-1-yl}acetamide] | < 10
25 | CO[C@@H]1C[C@]2(NC(=O)COc3ccc(Cl)c(F)c3)CC[C@@]1(NC(=O)COc1ccc(Cl)c(F)c1)CC2O (mixture of isomers) [Compound 554, rac-N,N′-[(1R,4R,5R)-2-hydroxy-5-methoxybicyclo[2.2.2]octane-1,4-diyl]bis[2-(4-chloro-3-fluorophenoxy)acetamide]] | < 10
26 | COC(=O)c1cc(OCC(=O)NC23CCC(NC(=O)COc4ccc(Cl)c(C(=O)OC)c4)(CC2)[C@@H](O)C3)ccc1Cl [Compound 594, dimethyl 3,3′-{[(2S)-2-hydroxybicyclo[2.2.2]octane-1,4-diyl]bis[azanediyl(2-oxoethane-2,1-diyl)oxy]}bis(6-chlorobenzoate)] | > 2000
27 | O=C(COc1ccc(F)c(F)c1)NC12CCC(NC(=O)COc3ccc(Cl)c(Cl)c3)(CC1)C(=O)N2 [Compound 680, 2-(3,4-dichlorophenoxy)-N-{1-[2-(3,4-difluorophenoxy)acetamido]-3-oxo-2-azabicyclo[2.2.2]octan-4-yl}acetamide] | < 10
28 | O=C(COc1ccc2c(c1)OC(F)(F)O2)NC12CCC(NC(=O)COc3ccc(Cl)c(F)c3)(CC1)[C@@H](O)C2 [Compound 726, 2-(4-chloro-3-fluorophenoxy)-N-[(2S)-4-{2-[(2,2-difluoro-2H-1,3-benzodioxol-5-yl)oxy]acetamido}-2-hydroxybicyclo[2.2.2]octan-1-yl]acetamide] | < 10
29 | O=C(COc1ccc(F)c(C(F)(F)F)c1)NC12CCC(NC(=O)COc3ccc(F)cc3)(CC1)[C@@H](O)C2 [Compound 847, 2-(4-fluorophenoxy)-N-[(2S)-4-{2-[4-fluoro-3-(trifluoromethyl)phenoxy]acetamido}-2-hydroxybicyclo[2.2.2]octan-1-yl]acetamide] | < 10
30 | O=C(COc1ccc(OC(F)(F)F)cc1)NC12CCC(NC(=O)COc3ccc4c(c3)OC(F)(F)O4)(CC1)[C@@H](O)C2 [Compound 780, 2-[(2,2-difluoro-2H-1,3-benzodioxol-5-yl)oxy]-N-[(2S)-2-hydroxy-4-{2-[4-(trifluoromethoxy)phenoxy]acetamido}bicyclo[2.2.2]octan-1-yl]acetamide] | < 10
31 | O=C(COc1ccc(C(F)F)nc1)NC12CC(NC(=O)COc3ccc(Cl)c(F)c3)(C1)C2 [Compound 399, 2-(4-chloro-3-fluorophenoxy)-N-[3-(2-{[6-(difluoromethyl)pyridin-3-yl]oxy}acetamido)bicyclo[1.1.1]pentan-1-yl]acetamide] | 10 to 50
